The text below walks through data of ChEMBL document CHEMBL3045618, “Effect of seven new orchard pesticides on Galendromus occidentalis in laboratory studies” (2009).

The test system of experiment [1] is Galendromus occidentalis. Nature of the experiment: Toxicity against Metaseiulus occidentalis adults in bean leaf disk infested with two-spotted spider mites assessed as repellency at 0.1333 g AI/L treated using worst-case laboratory exposure procedure measured after 72 hr (reference value: 16.1%). It counts as functional.
Experiment [2] concerns Galendromus occidentalis. Nature of the experiment: Toxicity against Metaseiulus occidentalis adults in bean leaf disk infested with two-spotted spider mites assessed as repellency at 0.1333 g AI/L treated using worst-case laboratory exposure procedure measured after 48 hr (reference value: 13.6%). It counts as functional.
The subject of experiment [3] is Galendromus occidentalis. Nature of the experiment: Toxicity against Metaseiulus occidentalis adults in bean leaf disk infested with two-spotted spider mites assessed as repellency at 0.1333 g AI/L treated using worst-case laboratory exposure procedure measured after 24 hr (reference value: 3.6%). It counts as functional.
Experiment [4] deals with Galendromus occidentalis. Put plainly: Toxicity against Metaseiulus occidentalis adults in bean leaf disk infested with two-spotted spider mites assessed as average number of eggs laid (fecundity) at 0.1333 g AI/L treated using worst-case laboratory exposure procedure measured after 72 hr (reference value: 2.23/day). It counts as functional.
For experiment [5], the system named is Galendromus occidentalis. Put plainly: Toxicity against Metaseiulus occidentalis adults in bean leaf disk infested with two-spotted spider mites assessed as corrected mortality at 0.1600 g AI/L treated using worst-case laboratory exposure procedure measured after 72 hr. It counts as functional.
In experiment [6] the test system is Galendromus occidentalis. Nature of the experiment: Toxicity against Metaseiulus occidentalis adults in bean leaf disk infested with two-spotted spider mites assessed as corrected mortality at 2x0.1600 g AI/L treated using worst-case laboratory exposure procedure measured after 72 hr. It counts as functional.
Experiment [7] relates to Galendromus occidentalis. Put plainly: Toxicity against Metaseiulus occidentalis adults in bean leaf disk infested with two-spotted spider mites assessed as average number of eggs laid (fecundity) at 0.1333 g AI/L treated using worst-case laboratory exposure procedure measured after 48 hr (reference value: 2.30/day). It counts as functional.
Experiment [8] concerns Galendromus occidentalis. Put plainly: Toxicity against Metaseiulus occidentalis adults in bean leaf disk infested with two-spotted spider mites assessed as average number of eggs laid (fecundity) at 0.1333 g AI/L treated using worst-case laboratory exposure procedure measured after 24 hr (reference value: 2.11/day). It counts as functional.
The test system of experiment [9] is Galendromus occidentalis. Nature of the experiment: Toxicity against Metaseiulus occidentalis adults in bean leaf disk infested with two-spotted spider mites assessed as corrected mortality at 4x0.1600 g AI/L treated using worst-case laboratory exposure procedure measured after 72 hr. It counts as functional.
Experiment [10] deals with Galendromus occidentalis. Nature of the experiment: Ovicidal activity against Metaseiulus occidentalis eggs in bean leaf disk infested with two-spotted spider mites assessed as corrected cumulative mortality at 480 g/L SC formulation treated using worst-case laboratory exposure procedure measured after 144 hr (reference value: 0.7%). It counts as functional.
Experiment [11] has as its system Galendromus occidentalis. Put plainly: Toxicity against Metaseiulus occidentalis adults in bean leaf disk infested with two-spotted spider mites assessed as repellency at 0.3767 g AI/L treated using worst-case laboratory exposure procedure measured after 48 hr (reference value: 13.6%). It counts as functional.
For experiment [12], the system named is Galendromus occidentalis. Put plainly: Toxicity against Metaseiulus occidentalis adults in bean leaf disk infested with two-spotted spider mites assessed as repellency at 0.3767 g AI/L treated using worst-case laboratory exposure procedure measured after 24 hr (reference value: 3.6%). It counts as functional.
Experiment [13] relates to Galendromus occidentalis. Nature of the experiment: Toxicity against Metaseiulus occidentalis adults in bean leaf disk infested with two-spotted spider mites assessed as repellency at 0.3767 g AI/L treated using worst-case laboratory exposure procedure measured after 72 hr (reference value: 16.1%). It counts as functional.
Experiment [14] deals with Galendromus occidentalis. Nature of the experiment: Toxicity against Metaseiulus occidentalis adults in bean leaf disk infested with two-spotted spider mites assessed as average number of eggs laid (fecundity) at 0.3767 g AI/L treated using worst-case laboratory exposure procedure measured after 72 hr (reference value: 2.23/day). It counts as functional.
In experiment [15] the test system is Galendromus occidentalis. Put plainly: Toxicity against Metaseiulus occidentalis adults in bean leaf disk infested with two-spotted spider mites assessed as corrected mortality at 0.3767 g AI/L treated using worst-case laboratory exposure procedure measured after 72 hr. It counts as functional.
In experiment [16] the test system is Galendromus occidentalis. Put plainly: Toxicity against Metaseiulus occidentalis adults in bean leaf disk infested with two-spotted spider mites assessed as average number of eggs laid (fecundity) at 0.3767 g AI/L treated using worst-case laboratory exposure procedure measured after 48 hr (reference value: 2.30/day). It counts as functional.
For experiment [17], the system named is Galendromus occidentalis. Put plainly: Toxicity against Metaseiulus occidentalis adults in bean leaf disk infested with two-spotted spider mites assessed as average number of eggs laid (fecundity) at 0.3767 g AI/L treated using worst-case laboratory exposure procedure measured after 24 hr (reference value: 2.11/day). It counts as functional.
In experiment [18] the test system is Galendromus occidentalis. Put plainly: Ovicidal activity against Metaseiulus occidentalis eggs in bean leaf disk infested with two-spotted spider mites assessed as corrected cumulative mortality at 240 g/L SC formulation treated using worst-case laboratory exposure procedure measured after 144 hr (reference value: 0.7%). It counts as functional.
Experiment [19] has as its system Amblyseius andersoni. Nature of the experiment: Toxicity against Amblyseius andersoni in hop fields assessed as mortality. It counts as functional.
For experiment [20], the system named is Galendromus occidentalis. Nature of the experiment: Toxicity against Metaseiulus occidentalis adults in bean leaf disk infested with two-spotted spider mites assessed as repellency at 0.1600 g AI/L treated using worst-case laboratory exposure procedure measured after 72 hr (reference value: 16.1%). It counts as functional.
The test system of experiment [21] is Galendromus occidentalis. Put plainly: Toxicity against Metaseiulus occidentalis adults in bean leaf disk infested with two-spotted spider mites assessed as repellency at 0.1600 g AI/L treated using worst-case laboratory exposure procedure measured after 48 hr (reference value: 13.6%). It counts as functional.
For experiment [22], the system named is Galendromus occidentalis. Nature of the experiment: Toxicity against Metaseiulus occidentalis in hop fields assessed as mortality. It counts as functional.
For experiment [23], the system named is Neoseiulus fallacis. Put plainly: Toxicity against Neoseiulus fallacis in hop fields assessed as mortality. It counts as functional, Garman.
The test system of experiment [24] is Galendromus occidentalis. Put plainly: Toxicity against Metaseiulus occidentalis adults in bean leaf disk infested with two-spotted spider mites assessed as repellency at 0.1600 g AI/L treated using worst-case laboratory exposure procedure measured after 24 hr (reference value: 3.6%). It counts as functional.
Experiment [25] concerns Galendromus occidentalis. Nature of the experiment: Toxicity against Metaseiulus occidentalis adults in bean leaf disk infested with two-spotted spider mites assessed as average number of eggs laid (fecundity) at 0.1600 g AI/L treated using worst-case laboratory exposure procedure measured after 72 hr (reference value: 2.23/day). It counts as functional.
Experiment [26] concerns Galendromus occidentalis. Nature of the experiment: Toxicity against Metaseiulus occidentalis adults in bean leaf disk infested with two-spotted spider mites assessed as corrected mortality at 0.1600/8 g AI/L treated using worst-case laboratory exposure procedure measured after 72 hr. It counts as functional.
Experiment [27] concerns Galendromus occidentalis. Put plainly: Toxicity against Metaseiulus occidentalis adults in bean leaf disk infested with two-spotted spider mites assessed as corrected mortality at 0.1600/2 g AI/L treated using worst-case laboratory exposure procedure measured after 72 hr. It counts as functional.
The subject of experiment [28] is Galendromus occidentalis. Nature of the experiment: Toxicity against Metaseiulus occidentalis adults in bean leaf disk infested with two-spotted spider mites assessed as average number of eggs laid (fecundity) at 0.1600 g AI/L treated using worst-case laboratory exposure procedure measured after 48 hr (reference value: 2.30/day). It counts as functional.
Experiment [29] concerns Galendromus occidentalis. Nature of the experiment: Toxicity against Metaseiulus occidentalis adults in bean leaf disk infested with two-spotted spider mites assessed as average number of eggs laid (fecundity) at 0.1600 g AI/L treated using worst-case laboratory exposure procedure measured after 24 hr (reference value: 2.11/day). It counts as functional.
Experiment [30] has as its system Galendromus occidentalis. Put plainly: Toxicity against Metaseiulus occidentalis adults in bean leaf disk infested with two-spotted spider mites assessed as corrected mortality at 0.1600/32 g AI/L treated using worst-case laboratory exposure procedure measured after 72 hr. It counts as functional.
The subject of experiment [31] is Galendromus occidentalis. Nature of the experiment: Toxicity against Metaseiulus occidentalis adults in bean leaf disk infested with two-spotted spider mites assessed as corrected mortality at 0.1600/16 g AI/L treated using worst-case laboratory exposure procedure measured after 72 hr. It counts as functional.
The subject of experiment [32] is Galendromus occidentalis. Put plainly: Toxicity against Metaseiulus occidentalis adults in bean leaf disk infested with two-spotted spider mites assessed as mortality treated using worst-case laboratory exposure procedure measured after 72 hr. It counts as functional.

Consider `N#C/N=C1\SCCN1Cc1ccc(Cl)nc1` [THIACLOPRID], for which the Repellency in experiment [1] is on record as 49.4%; in [2], 44.9%; in experiment [3], 12.2%. Further, the Activity in experiment [4] stood at 1.58 day⁻¹; in experiment [7], 1.26 day⁻¹; in experiment [8], 1.64 day⁻¹. The mortality in [5] is 2.8%; in [6], 2.3%; in experiment [9], 5.8%. Also, the mortality at 480000 µg/mL (stock) in [10] is 1.9%.

Turning to `COc1cccc(C(=O)NN(C(=O)c2cc(C)cc(C)c2)C(C)(C)C)c1C` [METHOXYFENOZIDE], the results for the Repellency in [11], in experiment [12] and in experiment [13] were 5.8%, 3.8% and 9%, respectively. For the same molecule, the Activity was found to be 2.38 day⁻¹ in experiment [14], 2.15 day⁻¹ in experiment [16] and 1.93 day⁻¹ in experiment [17]. Besides, the mortality in [15] is given as 1.3%. The mortality at 240000 µg/mL (stock) in [18] stood at 3.1%.

As for `O=[N+]([O-])/N=C1\NCCN1Cc1ccc(Cl)nc1` [IMIDACLOPRID], the mortality in experiment [19] came to 35.6%; in experiment [22], 100%; in experiment [23], 100%; in experiment [26], 59.4%; in experiment [27], 84.2%; in experiment [5], 97.4%. In addition, the results for the mortality in [30] and in experiment [31] were 16.8% and 34.4%, respectively. Besides, the values for the Repellency in experiment [20], in experiment [21] and in experiment [24] were 53.8%, 51.9% and 16%, respectively. The Activity in experiment [25] stood at 1.3 day⁻¹; in experiment [28], 1.54 day⁻¹; in experiment [29], 2.05 day⁻¹. The LC50 in [32] worked out at 0.0156 gAi/L. Moreover, the mortality at 240000 µg/mL (stock) in experiment [18] came out at 2.7%.
